Measured values from patent publication EP0345068B1, “Agonist of gamma-aminobutyric acid” (JOHN WYETH & BROTHER LIMITED, priority 1988, dated 1989).

What was measured:
GABA autoreceptor [1] = experiment: Procedure 1: inhibition of potassium-evoked [3H]-GABA release from rat cerebral cortex slices; format: cell-based; conditions: for GABA autoreceptor pD2 values: inhibition of 25 mM potassium-evoked [3H]-GABA release, rat cortex slices in vitro
Procedure: (§1) The following test procedures were used to measure activity at (a) GABA autoreceptors and GABAB receptors by inhibition of potassium-evoked GABA and noradrenalin release from rat cortex in vitro (Procedure 1); and (b) GABAA receptors by enhancement of [3H]-flunitrazepam binding in rat cortex in vitro (Procedure 2):
(§2) Slices (0.25 x 0.25 x 2.0 mm) of rat cerebral cortex are prepared using a McIlwain tissue chopper. The slices are incubated in Krebs-Henseleit solution containing [³H]-GABA (10⁻⁷M) and [¹⁴C]-noradrenaline (10⁻⁷M) in the presence of amino-oxyacetic acid (AOAA) (10⁻⁵M), pargyline (10⁻⁶M) and ascorbic acid (10⁻⁴M), for 20 minutes at 37°C, rinsed with 5 ml aliquots of Krebs-Henseleit solution and transferred to 10 superfusion chambers (volume 300»l). The slices are continuously superfused with Krebs-Henseleit solution (0.4 ml min⁻¹) containing AOAA (10⁻⁵M) and fractions of the superfusate collected every 4 minutes. Transmitter release is induced by 4 minute exposure to a Krebs-Henseleit solution containing 25 mM potassium (with concomitant reduction in sodium to maintain osmolarity) after 68 (S₁) and 92 (S₂) minutes of superfusion. The compound under study is added to the superfusing medium 20 minutes prior to the second potassium stimulation. The residual radioactivity in the slices at the end of the experiment together with that in the superfusate fractions is measured by liquid scintillation counting using a dual label programme for tritium and carbon-14. Calculations: The amount of radioactivity (either tritium or carbon-14) in each fraction is expressed as a percentage of the respective total radioactivity in the tissue at the start of the respective collection period. The amount of radioactivity released above basal by the increased potassium is calculated and the ratio S2/S1 obtained. The S2/S1 ratio from drug-treated slices is expressed as a percentage of the control S2/S1 ratio.

GABAB receptors = target: T1, GABAB receptors (Rattus norvegicus, UniProt Q9Z0U4); experiment: Procedure 1: inhibition of potassium-evoked [14C]-noradrenaline release from rat cerebral cortex slices; format: cell-based; conditions: for inhibition at 10 µM: 10^-5M, potassium-evoked noradrenaline release, rat cortex slices, failure to inhibit indicates no GABAB agonist activity
T1 construct: Slices (0.25 x 0.25 x 2.0 mm) of rat cerebral cortex; from tissue; host or cells: rat cerebral cortex slices
T1 sequence (Q9Z0U4 20-960): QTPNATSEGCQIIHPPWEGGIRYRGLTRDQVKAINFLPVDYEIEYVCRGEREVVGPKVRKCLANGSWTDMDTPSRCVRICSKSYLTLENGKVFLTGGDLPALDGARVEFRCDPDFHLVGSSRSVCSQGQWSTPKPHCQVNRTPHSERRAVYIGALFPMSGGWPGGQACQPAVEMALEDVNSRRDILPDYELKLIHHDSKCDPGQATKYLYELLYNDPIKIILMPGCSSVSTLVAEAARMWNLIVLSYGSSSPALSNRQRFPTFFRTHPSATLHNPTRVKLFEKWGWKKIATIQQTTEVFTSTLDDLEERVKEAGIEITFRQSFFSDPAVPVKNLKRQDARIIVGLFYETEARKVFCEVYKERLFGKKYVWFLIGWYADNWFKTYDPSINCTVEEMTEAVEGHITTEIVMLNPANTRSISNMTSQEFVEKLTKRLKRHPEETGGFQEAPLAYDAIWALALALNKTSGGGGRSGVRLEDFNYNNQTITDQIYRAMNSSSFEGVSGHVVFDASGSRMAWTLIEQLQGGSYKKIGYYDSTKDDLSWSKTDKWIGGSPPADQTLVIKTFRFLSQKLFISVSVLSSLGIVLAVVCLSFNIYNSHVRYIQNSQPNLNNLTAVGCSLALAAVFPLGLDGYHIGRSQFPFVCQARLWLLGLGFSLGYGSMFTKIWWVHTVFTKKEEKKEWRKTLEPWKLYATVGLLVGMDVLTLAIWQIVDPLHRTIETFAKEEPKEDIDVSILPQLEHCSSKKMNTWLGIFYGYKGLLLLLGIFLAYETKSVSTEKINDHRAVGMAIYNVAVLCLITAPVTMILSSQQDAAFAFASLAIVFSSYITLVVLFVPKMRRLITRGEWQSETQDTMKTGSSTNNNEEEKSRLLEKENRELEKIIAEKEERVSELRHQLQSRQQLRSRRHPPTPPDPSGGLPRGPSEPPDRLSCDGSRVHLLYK
T1 sequence (O88871 41-940 partner): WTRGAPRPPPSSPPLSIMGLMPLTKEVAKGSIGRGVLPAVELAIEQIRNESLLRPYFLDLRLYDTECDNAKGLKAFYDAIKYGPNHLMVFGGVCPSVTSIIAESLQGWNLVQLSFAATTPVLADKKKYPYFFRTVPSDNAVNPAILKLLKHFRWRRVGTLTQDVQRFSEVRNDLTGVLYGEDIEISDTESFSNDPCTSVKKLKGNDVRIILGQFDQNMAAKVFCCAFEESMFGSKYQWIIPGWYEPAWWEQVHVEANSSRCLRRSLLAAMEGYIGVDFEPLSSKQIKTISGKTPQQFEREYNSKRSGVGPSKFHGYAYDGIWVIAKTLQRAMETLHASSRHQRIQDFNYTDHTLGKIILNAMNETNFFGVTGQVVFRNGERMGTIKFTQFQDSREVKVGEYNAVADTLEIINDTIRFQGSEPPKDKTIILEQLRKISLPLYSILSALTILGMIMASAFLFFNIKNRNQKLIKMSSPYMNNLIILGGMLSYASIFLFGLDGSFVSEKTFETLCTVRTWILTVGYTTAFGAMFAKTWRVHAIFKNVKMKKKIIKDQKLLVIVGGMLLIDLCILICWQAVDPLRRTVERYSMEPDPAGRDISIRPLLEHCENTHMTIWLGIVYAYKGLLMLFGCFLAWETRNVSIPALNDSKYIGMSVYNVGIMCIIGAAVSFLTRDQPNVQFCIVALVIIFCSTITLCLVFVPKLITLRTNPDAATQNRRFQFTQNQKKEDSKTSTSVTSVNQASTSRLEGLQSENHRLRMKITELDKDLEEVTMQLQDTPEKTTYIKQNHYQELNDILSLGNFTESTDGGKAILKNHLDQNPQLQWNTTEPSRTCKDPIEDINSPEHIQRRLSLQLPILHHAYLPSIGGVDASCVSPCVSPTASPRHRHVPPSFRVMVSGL
Procedure: as §1
as §2, with “ratio. For compounds achieving inhibition of 30% or more pD₂ values are calculated from plots of inhibition of release versus concentration of drug.” for “ratio.”

GABAA receptors = experiment: Procedure 2: enhancement of [3H]-flunitrazepam binding in rat cortex membranes; conditions: for Enhancement of [3H]-flunitrazepam binding: 20nM [3H]-flunitrazepam, rat cortex membranes, 30 minutes at 37°C
Procedure: as §1
Cortices from six or more rats are excised and homogenised in 50 volumes (volume/weight) 50mM Tris buffer (pH 7.4 at 37°C) using a Polytron homogeniser on speed 5 for 30 seconds. Tissue is kept at O°C throughout the procedure. The homogenate is centrifuged at 40,000 x g for 15 minutes and the pellet resuspended (Polytron 5, 10 sec.) in 50 volumes (original weight) of Tris buffer. Centrifugation and resuspension is repeated followed by incubation at 37°C for 10 minutes. The homogenate is centrifuged (40,000 x g, 15 min), resuspended in 10 volumes (original weight) Tris and stored below -20°C for more than 24 hours.
On the day of the experiment, membranes are thawed at 37°C and made up to 20 volumes (original weight) with Tris Krebs (20mM, see below). The membranes are homogenised (Polytron 5, 30 sec), incubated at 37°C for 15 minutes and centrifuged at 20,000 x g for 10 minutes. This wash and resuspension is repeated two more times with the final pellet resuspended in 100 volumes (original weight) Tris Krebs ready for use.
The test compound (50»l) and 20nM (final concentration) [³H]-flunitrazepam (50»l) are dispensed in triplicate. The reaction is started by the addition of 900»l of membrane preparation. After a 30 minute incubation at 37°C the reaction is stopped by filtration through Whatman GF/B filters under reduced pressure using a Brandell Cell Harvester, with two 7.5 ml filter washings. The radioactivity retained on the filters is measured by liquid scintillation counting. Tris Krebs composition: NaCl-136mM, KCl-5mM, MgSO₄-2mM, KH₂PO₄-2mM, CaCl₂-2mM, Tris buffer (pH 7.4 at 37°C)-20mM, ascorbic acid-lmM, disodium ethylenediamine tetraacetic acid-lmM.
Calculations: Results are calculated as follows: [formula]

GABA autoreceptor [2] = experiment: Procedure 3: effect on a GABA synapse in vivo, caudate-evoked synaptic inhibition of nigral neurones, iontophoretic ejection; parameters: species or system rat; conditions: anaesthetized male albino rats; ejected iontophoretically in the vicinity of nigral neurones; action reversible
Procedure: The compounds were also tested for their effect on a GABA synapse in vivo in the following procedure:
(§3) Experiments were performed on male albino rats (240-280g) lightly anaesthetized with urethane (1.2-1.4 g/kg i.p.) or Halothane (0.7-1.0% in 0₂). The animal's temperature was maintained between 36-38°C via a thermostatically controlled heating blanket.
(§4) The caudate nucleus and substantia nigra were approached dorsally after exposing the overlying cortex. Pulsations of the brain and cerebral oedema were minimised by allowing cerebral spinal fluid to leak from a cisternal puncture. The exposed cortex was bathed in warm liquid paraffin throughout the experiment. A coaxial bipolar stimulating electrode (tip separation 0.25mm) was positioned stereotaxically in the caudate nucleus such that the tip of the electrode corresponded to the area delineated by the co-ordinates L 2.5; A 8.5-95; D 5. (Paxinos and Watson 1986). […]
(§5) Extracellular recordings were obtained from single neurones in the ipsilateral substantia nigra via either the centre barrel (3.5M NaCl) of a multibarrelled microelectrode or a single barrelled electrode (3.5M NaCl), attached to but protruding 10-20 » beyond, a multibarrelled electrode. […] Effects of agonist drugs on the GABA autoreceptor could be measured as an attenuation of the synaptic inhibition evoked by stimulation of the caudate. […]

[3] = test system: postsynaptic GABAA receptors; experiment: Procedure 3: drug ejected onto nigral neurones in vivo, test of postsynaptic GABAA receptor effect; parameters: species or system rat; conditions: anaesthetized male albino rats; ejected iontophoretically in the vicinity of nigral neurones
Procedure: as §3, §4, §5

inhibition at 10 µM (GABAB receptors) | Enhancement of [3H]-flunitrazepam binding (GABAA receptors) | activity at GABAB sites in vitro (GABAB receptors; in vitro) | activity at GABAA sites in vitro (GABAA receptors; in vitro) | Structure (SMILES) | activity at the GABA autoreceptor (GABA autoreceptor [1]; in vitro) | GABA autoreceptor pD2 values (GABA autoreceptor [1]) | synaptically-evoked, GABA-mediated inhibition in the substantia nigra (GABA autoreceptor [2]) | effect on postsynaptic GABAA receptors [3]
0% | 0 |  |  | COc1ccc(CN(CCCC(N)=O)Cc2ccc(OC)cc2)cc1 [Example 12, 4-[N,N-Bis-(4-Methoxybenzyl)amino]butyramide] |  | 6.0 |  | 
0% | 0 |  |  | O=C(O)CCCN(Cc1ccc(Cl)c(Cl)c1)Cc1ccc(Cl)c(Cl)c1 [Example 10, 4-[N,N-Bis-(3,4-dichlorobenzyl)amino]butyric acid] |  | 7.5 |  | 
0% | 0 |  |  | NC(=O)CCCN(Cc1ccc(Cl)cc1)Cc1ccc(Cl)cc1 [Example 3, 4-[N,N-Bis-(4-chlorobenzyl)amino]butyramide] |  | 6.6 |  | 
 |  | little or no activity | little or no activity | CCCC/N=C(/c1cc(Cl)ccc1O)c1ccccc1Cl [fengabine, reference compound] |  | 8.0 |  | 

The remaining lines, values behind:

Structure (SMILES) | inhibition at 10 µM (GABAB receptors) | Enhancement of [3H]-flunitrazepam binding (GABAA receptors) | activity at GABAB sites in vitro (GABAB receptors; in vitro) | activity at GABAA sites in vitro (GABAA receptors; in vitro) | activity at the GABA autoreceptor (GABA autoreceptor [1]; in vitro) | GABA autoreceptor pD2 values (GABA autoreceptor [1]) | synaptically-evoked, GABA-mediated inhibition in the substantia nigra (GABA autoreceptor [2]) | effect on postsynaptic GABAA receptors [3]
NC(=O)CCC/N=C(\c1ccc(Cl)cc1)c1cc(F)ccc1O [Progabide, reference compound] |  |  |  |  | active |  |  | 
NC(=O)CCCN(Cc1ccccc1)Cc1ccccc1 [Example 4, 4-(N,N-Dibenzylamino)butyramide] | > 20% | 0 |  |  |  | 7.0 |  | 
CN(CCCC(N)=O)Cc1ccc(Cl)cc1 [Example 24, 4-[(N-(p-Chlorobenzyl)-N-methyl)amino]butyramide] | 0% | 0 |  |  |  | 7.5 |  | 
O=C(O)CCCN(Cc1ccc(Cl)cc1)Cc1ccc(Cl)cc1 [Example 2, 4-[N,N-Bis-(4-Chlorobenzyl)amino]butyric acid] | 0% | 0 |  |  |  | 7.0 |  | 
Cc1ccc(CN(CCCC(=O)O)Cc2ccc(C)cc2)cc1 [Example 8, 4-[N,N-Bis-(4-methylbenzyl)amino]butyric acid] | 10% | 0 |  |  |  | 7.4 |  | 
O=C(O)CCCN(Cc1ccccc1)Cc1ccccc1 [Example 5, 4-(N,N-Dibenzylamino)butyric acid] | 20% | 0 |  |  |  | 7.1 | almost abolished | without affecting
